Experiments:
HCV 1b-Con1 replicon = HCV 1b-Con1 replicon assay in the presence of 5% FBS; format: cell-based; conditions: Hepatitis C virus
[1] = system: HCV 2a, 2b, 3a and 4a replicons; test: HCV 2a, 2b, 3a and 4a replicon assays in the absence of human plasma; format: cell-based
Experimental: The inhibitory effects of the compounds of the invention on HCV replication can be determined by measuring activity of the luciferase reporter gene. For example, replicon-containing cells can be seeded into 96 well plates at a density of 5000 cells per well in 100 μl DMEM containing 5% FBS. The following day compounds can be diluted in dimethyl sulfoxide (DMSO) to generate a 200× stock in a series of eight half-log dilutions. The dilution series can then be further diluted 100-fold in the medium containing 5% FBS. Medium with the inhibitor is added to the overnight cell culture plates already containing 100 μl of DMEM with 5% FBS. In assays measuring inhibitory activity in the presence of human plasma, the medium from the overnight cell culture plates can be replaced with DMEM containing 40% human plasma and 5% FBS. […] Luciferin solution (100 μl, Promega) can be added to each well, and luciferase activity can be measured with a Victor II luminometer (Perkin-Elmer). The percent inhibition of HCV RNA replication can be calculated for each compound concentration and the EC50 value can be calculated using nonlinear regression curve fitting to the 4-parameter logistic equation and GraphPal Prism 4 software.

[2] = AUC value (pharmacokinetics); conditions: in vivo

SMILES	EC50 (HCV 1b-Con1 replicon)	EC50 values, fold less than those of Example 4.25 [1]	AUC value, fold greater than that of Example 2.9 [2]	AUC value, fold greater than that of Example 109 of the '301 application [2]
COC(=O)N[C@H](C(=O)N1CCC[C@H]1c1nc2cc([C@H]3CC[C@H](c4ccc5[nH]c([C@@H]6CCCN6C(=O)[C@@H](NC(=O)OC)C(C)C)nc5c4)N3c3ccc(N4CCC(c5ccccc5)CC4)c(F)c3)ccc2[nH]1)C(C)C [Example 3.20, methyl {(2S)-1-[(2S)-2-{5-[(2R,5R)-1-[3-fluoro-4-(4-phenylpiperidin-1-yl)phenyl]-5-{2-[(2S)-1-{(2S)-2-[(methoxycarbonyl)amino]-3-methylbutanoyl}pyrrolidin-2-yl]-1H-benzimidazol-5-yl}pyrrolidin-2-yl]-1H-benzimidazol-2-yl}pyrrolidin-1-yl]-3-methyl-1-oxobutan-2-yl}carbamate]	< 0.1 nM	at least 15 fold		
COC(=O)N[C@H](C(=O)N1CCC[C@H]1c1nc2cc([C@H]3CC[C@H](c4ccc5[nH]c([C@@H]6CCCN6C(=O)[C@@H](NC(=O)OC)C(C)C)nc5c4)N3c3cc(F)c(N4CCC(c5ccccc5)CC4)c(F)c3)ccc2[nH]1)C(C)C [Example 5.1, methyl {(2S)-1-[(2S)-2-{5-[(2R,5R)-1-[3,5-difluoro-4-(4-phenylpiperidin-1-yl)phenyl]-5-{2-[(2S)-1-{(2S)-2-[(methoxycarbonyl)amino]-3-methylbutanoyl}pyrrolidin-2-yl]-1H-benzimidazol-5-yl}pyrrolidin-2-yl]-1H-benzimidazol-2-yl}pyrrolidin-1-yl]-3-methyl-1-oxobutan-2-yl}carbamate]	< 0.1 nM	at least 50 fold	about 30 fold	
COC(=O)N[C@H](C(=O)N1CCC[C@H]1c1nc2cc([C@H]3CC[C@H](c4cc5[nH]c([C@@H]6CCCN6C(=O)[C@@H](NC(=O)OC)C(C)C)nc5cc4F)N3c3ccc(C(C)(C)C)cc3)c(F)cc2[nH]1)C(C)C [Example 6.1, methyl {(2S)-1-[(2S)-2-{5-[(2R,5R)-1-(4-tert-butylphenyl)-5-{5-fluoro-2-[(2S)-1-{(2S)-2-[(methoxycarbonyl)amino]-3-methylbutanoyl}pyrrolidin-2-yl]-1H-benzimidazol-6-yl}pyrrolidin-2-yl]-6-fluoro-1H-benzimidazol-2-yl}pyrrolidin-1-yl]-3-methyl-1-oxobutan-2-yl}carbamate]	< 0.1 nM			about 9 fold

— US20120220562A1, “Anti-Viral Compounds” (ABBOTT LABAORATORIES, priority 2011, published 2012)
